Laboratory results from US5001118A, “Method for preventing senescence and increasing bone mass” (priority 1986, dated 1991).

Tests used:
ICR type male mice = assay: Acute toxicity, oral administration; assay type: in vivo; settings: 100 mg/kg p.o.
Protocol: (§1) A test solution was prepared by dissolving the present substance, 24R,25-(OH)2 -D3, in ethanol and again dissolving the resultant ethanol solution in triglyceride ester of a fatty acid of 8 to 10 carbon atoms so that the ethanol concentration is 2%. Then, the test solution was orally administered (p.o.) at a dose of 100 mg/kg to a test group of 10 ICR type male mice (each weighing 25±3 g). For two weeks, the mice were kept under observation for sign of toxication. […] They were then sacrificed and subjected to biochemical blood inspection, anatomical observation, and histopathological inspection.

[1] = Acute toxicity, oral administration; assay type: in vivo; settings: mouse, in vivo, po
Protocol: as §1

ICR type mice [2] = assay: Weight of internal organs, daily oral administration; assay type: in vivo, mouse (ICR type); parameters: key: .dwnarw.: Decrease below control; →: No difference from control; .uparw.: Increase above control
Protocol: Solutions obtained by dissolving the present substance, 24R,25-(OH)2 -D3 in a prescribed concentration in triglyceride of a fatty acid of 8 to 10 carbon atoms containing 1% of ethanol were administered respectively, orally, forcedly and daily to three male-groups and three female-groups of ICR type mice 5 weeks old at dosages of 10, 100, and 1,000 μg/kg.day. The results are compared below with respect to the following items with those obtained of the male- and female-groups using only the solvent without the present substance.

ICR type mice [3] = assay: Biochemical inspection of blood serum, daily oral administration; assay type: in vivo, mouse (ICR type); parameters: key: .dwnarw.: Decrease below control; →: No difference from control; .uparw.: Increase above control
Description: The results are compared below with respect to the following items with those obtained of the male- and female-groups using only the solvent without the present substance.

With `C=C1CC[C@H](O)C/C1=C/C=C1\CCC[C@]2(C)[C@@H]([C@H](C)CC[C@@H](O)C(C)(C)O)CC[C@@H]12` [24R,25-(OH)2 -D3] the sign of abnormality (ICR type male mice; 10 ICR male mice, two weeks) was “no sign of abnormality”, the survival (ICR type male mice; 10 ICR male mice, two weeks) was “All of the mice survived” and the “biochemical blood inspection, anatomical observation, and histopathological inspection vs control” value (ICR type male mice; ICR male mice, after two weeks) was “not different at all”. For the same compound, the LD50 at 336 h [1] was no less than 100 mg/kg, the “Weight of adrenal gland” value (ICR type mice [2]; female, 10 μg/kg) was “→” and the Weight of brain (ICR type mice [2]; female, 10 μg/kg) was “→”. The Weight of heart (ICR type mice [2]; female, 10 μg/kg) was “→”, the Weight of kidney (ICR type mice [2]; female, 10 μg/kg) was “→” and the Weight of liver (ICR type mice [2]; female, 10 μg/kg) was “→”. For the same compound, the Weight of lung (ICR type mice [2]; female, 10 μg/kg) was “→”, the Weight of ovary (ICR type mice [2]; female, 10 μg/kg) was “→” and the “Weight of pituitary gland” value (ICR type mice [2]; female, 10 μg/kg) was “→”. The Weight of spleen (ICR type mice [2]; female, 10 μg/kg) was “→”, the “Weight of thymus gland” value (ICR type mice [2]; female, 10 μg/kg) was “→” and the Weight of uterus (ICR type mice [2]; female, 10 μg/kg) was “→”. For the same compound, the “Weight of adrenal gland” value (ICR type mice [2]; female, 100 μg/kg) was “→”, the Weight of brain (ICR type mice [2]; female, 100 μg/kg) was “→” and the Weight of heart (ICR type mice [2]; female, 100 μg/kg) was “→”. For the same compound, the Weight of kidney (ICR type mice [2]; female, 100 μg/kg) was “→”, the Weight of liver (ICR type mice [2]; female, 100 μg/kg) was “→” and the Weight of lung (ICR type mice [2]; female, 100 μg/kg) was “→”. The Weight of ovary (ICR type mice [2]; female, 100 μg/kg) was “→”, the “Weight of pituitary gland” value (ICR type mice [2]; female, 100 μg/kg) was “→” and the Weight of spleen (ICR type mice [2]; female, 100 μg/kg) was “→”. For the same compound, the “Weight of thymus gland” value (ICR type mice [2]; female, 100 μg/kg) was “→”, the Weight of uterus (ICR type mice [2]; female, 100 μg/kg) was “→” and the “Weight of adrenal gland” value (ICR type mice [2]; female, 1000 μg/kg) was “→”. For the same compound, the Weight of brain (ICR type mice [2]; female, 1000 μg/kg) was “→”, the Weight of heart (ICR type mice [2]; female, 1000 μg/kg) was “→” and the Weight of kidney (ICR type mice [2]; female, 1000 μg/kg) was “→”. For the same compound, the Weight of liver (ICR type mice [2]; female, 1000 μg/kg) was “→”, the Weight of lung (ICR type mice [2]; female, 1000 μg/kg) was “→” and the Weight of ovary (ICR type mice [2]; female, 1000 μg/kg) was “→”. For the same compound, the “Weight of pituitary gland” value (ICR type mice [2]; female, 1000 μg/kg) was “→”, the Weight of spleen (ICR type mice [2]; female, 1000 μg/kg) was “→” and the “Weight of thymus gland” value (ICR type mice [2]; female, 1000 μg/kg) was “→”. For the same compound, the Weight of uterus (ICR type mice [2]; female, 1000 μg/kg) was “→”, the “Weight of adrenal gland” value (ICR type mice [2]; male, 10 μg/kg) was “→” and the Weight of brain (ICR type mice [2]; male, 10 μg/kg) was “→”. The Weight of heart (ICR type mice [2]; male, 10 μg/kg) was “→”, the Weight of kidney (ICR type mice [2]; male, 10 μg/kg) was “→” and the Weight of liver (ICR type mice [2]; male, 10 μg/kg) was “→”. For the same compound, the Weight of lung (ICR type mice [2]; male, 10 μg/kg) was “→”, the “Weight of pituitary gland” value (ICR type mice [2]; male, 10 μg/kg) was “→” and the Weight of spleen (ICR type mice [2]; male, 10 μg/kg) was “→”. The Weight of testis (ICR type mice [2]; male, 10 μg/kg) was “→”, the “Weight of thymus gland” value (ICR type mice [2]; male, 10 μg/kg) was “→” and the “Weight of adrenal gland” value (ICR type mice [2]; male, 100 μg/kg) was “→”. For the same compound, the Weight of brain (ICR type mice [2]; male, 100 μg/kg) was “→”, the Weight of heart (ICR type mice [2]; male, 100 μg/kg) was “→” and the Weight of kidney (ICR type mice [2]; male, 100 μg/kg) was “→”. The Weight of liver (ICR type mice [2]; male, 100 μg/kg) was “→”, the Weight of lung (ICR type mice [2]; male, 100 μg/kg) was “→” and the “Weight of pituitary gland” value (ICR type mice [2]; male, 100 μg/kg) was “→”. For the same compound, the Weight of spleen (ICR type mice [2]; male, 100 μg/kg) was “→”, the Weight of testis (ICR type mice [2]; male, 100 μg/kg) was “→” and the “Weight of thymus gland” value (ICR type mice [2]; male, 100 μg/kg) was “→”. For the same compound, the “Weight of adrenal gland” value (ICR type mice [2]; male, 1000 μg/kg) was “→”, the Weight of brain (ICR type mice [2]; male, 1000 μg/kg) was “→” and the Weight of heart (ICR type mice [2]; male, 1000 μg/kg) was “→”. The Weight of kidney (ICR type mice [2]; male, 1000 μg/kg) was “→”, the Weight of liver (ICR type mice [2]; male, 1000 μg/kg) was “→” and the Weight of lung (ICR type mice [2]; male, 1000 μg/kg) was “→”. For the same compound, the “Weight of pituitary gland” value (ICR type mice [2]; male, 1000 μg/kg) was “→”, the Weight of spleen (ICR type mice [2]; male, 1000 μg/kg) was “→” and the Weight of testis (ICR type mice [2]; male, 1000 μg/kg) was “→”. The “Weight of thymus gland” value (ICR type mice [2]; male, 1000 μg/kg) was “→”, the A/G (ICR type mice [3]; female, 10 μg/kg) was “→” and the ALP (ICR type mice [3]; female, 10 μg/kg) was “→”. The Alb (ICR type mice [3]; female, 10 μg/kg) was “→”, the BUN (ICR type mice [3]; female, 10 μg/kg) was “→” and the Ca (ICR type mice [3]; female, 10 μg/kg) was “→”. For the same compound, the GOT (ICR type mice [3]; female, 10 μg/kg) was “→”, the GPT (ICR type mice [3]; female, 10 μg/kg) was “→” and the Glu (ICR type mice [3]; female, 10 μg/kg) was “→”. For the same compound, the I-P (ICR type mice [3]; female, 10 μg/kg) was “→”, the LDH (ICR type mice [3]; female, 10 μg/kg) was “→” and the T-Bil (ICR type mice [3]; female, 10 μg/kg) was “→”. The T-CHO (ICR type mice [3]; female, 10 μg/kg) was “→”, the T-P (ICR type mice [3]; female, 10 μg/kg) was “→” and the A/G (ICR type mice [3]; female, 100 μg/kg) was “→”. For the same compound, the ALP (ICR type mice [3]; female, 100 μg/kg) was “→”, the Alb (ICR type mice [3]; female, 100 μg/kg) was “→” and the BUN (ICR type mice [3]; female, 100 μg/kg) was “→”. The Ca (ICR type mice [3]; female, 100 μg/kg) was “→”, the GOT (ICR type mice [3]; female, 100 μg/kg) was “→” and the GPT (ICR type mice [3]; female, 100 μg/kg) was “→”. The Glu (ICR type mice [3]; female, 100 μg/kg) was “→”, the I-P (ICR type mice [3]; female, 100 μg/kg) was “→” and the LDH (ICR type mice [3]; female, 100 μg/kg) was “→”. For the same compound, the T-Bil (ICR type mice [3]; female, 100 μg/kg) was “→”, the T-CHO (ICR type mice [3]; female, 100 μg/kg) was “→” and the T-P (ICR type mice [3]; female, 100 μg/kg) was “→”. For the same compound, the A/G (ICR type mice [3]; female, 1000 μg/kg) was “→”, the ALP (ICR type mice [3]; female, 1000 μg/kg) was “→” and the Alb (ICR type mice [3]; female, 1000 μg/kg) was “→”. The BUN (ICR type mice [3]; female, 1000 μg/kg) was “→”, the Ca (ICR type mice [3]; female, 1000 μg/kg) was “→” and the GOT (ICR type mice [3]; female, 1000 μg/kg) was “→”. The GPT (ICR type mice [3]; female, 1000 μg/kg) was “→”, the Glu (ICR type mice [3]; female, 1000 μg/kg) was “→” and the I-P (ICR type mice [3]; female, 1000 μg/kg) was “→”. For the same compound, the LDH (ICR type mice [3]; female, 1000 μg/kg) was “→”, the T-Bil (ICR type mice [3]; female, 1000 μg/kg) was “→” and the T-CHO (ICR type mice [3]; female, 1000 μg/kg) was “→”. The T-P (ICR type mice [3]; female, 1000 μg/kg) was “→”, the A/G (ICR type mice [3]; male, 10 μg/kg) was “→” and the ALP (ICR type mice [3]; male, 10 μg/kg) was “→”. The Alb (ICR type mice [3]; male, 10 μg/kg) was “→”, the BUN (ICR type mice [3]; male, 10 μg/kg) was “→” and the Ca (ICR type mice [3]; male, 10 μg/kg) was “→”. For the same compound, the GOT (ICR type mice [3]; male, 10 μg/kg) was “→”, the GPT (ICR type mice [3]; male, 10 μg/kg) was “→” and the Glu (ICR type mice [3]; male, 10 μg/kg) was “→”. For the same compound, the I-P (ICR type mice [3]; male, 10 μg/kg) was “→”, the LDH (ICR type mice [3]; male, 10 μg/kg) was “→” and the T-Bil (ICR type mice [3]; male, 10 μg/kg) was “→”. For the same compound, the T-CHO (ICR type mice [3]; male, 10 μg/kg) was “→”, the T-P (ICR type mice [3]; male, 10 μg/kg) was “→” and the A/G (ICR type mice [3]; male, 100 μg/kg) was “→”. The ALP (ICR type mice [3]; male, 100 μg/kg) was “→”, the Alb (ICR type mice [3]; male, 100 μg/kg) was “→” and the BUN (ICR type mice [3]; male, 100 μg/kg) was “→”. The Ca (ICR type mice [3]; male, 100 μg/kg) was “→”, the GOT (ICR type mice [3]; male, 100 μg/kg) was “→” and the GPT (ICR type mice [3]; male, 100 μg/kg) was “→”. The Glu (ICR type mice [3]; male, 100 μg/kg) was “→”, the I-P (ICR type mice [3]; male, 100 μg/kg) was “→” and the LDH (ICR type mice [3]; male, 100 μg/kg) was “→”. For the same compound, the T-Bil (ICR type mice [3]; male, 100 μg/kg) was “→”, the T-CHO (ICR type mice [3]; male, 100 μg/kg) was “→” and the T-P (ICR type mice [3]; male, 100 μg/kg) was “→”. The A/G (ICR type mice [3]; male, 1000 μg/kg) was “→”, the ALP (ICR type mice [3]; male, 1000 μg/kg) was “→” and the Alb (ICR type mice [3]; male, 1000 μg/kg) was “→”. The BUN (ICR type mice [3]; male, 1000 μg/kg) was “.dwnarw”, the Ca (ICR type mice [3]; male, 1000 μg/kg) was “→” and the GOT (ICR type mice [3]; male, 1000 μg/kg) was “→”. The GPT (ICR type mice [3]; male, 1000 μg/kg) was “→”, the Glu (ICR type mice [3]; male, 1000 μg/kg) was “.dwnarw” and the I-P (ICR type mice [3]; male, 1000 μg/kg) was “→”. The LDH (ICR type mice [3]; male, 1000 μg/kg) was “.dwnarw”, the T-Bil (ICR type mice [3]; male, 1000 μg/kg) was “.dwnarw” and the T-CHO (ICR type mice [3]; male, 1000 μg/kg) was “→”. For the same compound, the T-P (ICR type mice [3]; male, 1000 μg/kg) was “→”.
